The values that follow come from patent US5486531A, “Hydroxymethylfurazancarboxylic acid derivatives” (Cassella Aktiengesellschaft, priority 1993, dated 1996).

SMILES strings stand for the structures. Counter-ions that a name gives are not always drawn. Bounds are passed on as bounds.

The subject of the first assay is spiral strips of the arteria pulmonalis of the guinea pig. Briefly: relaxing effect on spiral strips of guinea pig arteria pulmonalis, contraction elicited by CaCl2 after depolarization with potassium (modified Godfraind and Kaba / Schuman). The assay is classed as cell-based. The following applies: Cavia porcellus, read-out: IC50 (concentration of the test substance which inhibits the contraction by 50%). Here is the method: For this, spiral strips of the arteria pulmonalis of the guinea pig are depolarized,following equilibration in calcium-free Tyrode solution, with 40 mmol/l potassium. Addition of 0.5 mmol/l CaCl2 then elicits a contraction. The relaxing effect of the test substance is determined by adding it cummulatively.
`O=[N+]([O-])O[C@@H]1CO[C@H]2[C@@H]1OC[C@@H]2O` [Isosorbide 5-mononitrate, isosorbide 5-mononitrate, reference compound]: the IC50 was more than 100 µM.

The assay is the same for the next values; noted with them: Cavia porcellus; depolarized with 40 mmol/l potassium, contraction by 0.5 mmol/l CaCl2; cumulative addition; average value from 4 to 6 vessel strips; read-out: IC50 (concentration of the test substance which inhibits the contraction by 50%).
On to `C[C@@H](NC(=O)c1c(CO)no[n+]1[O-])c1ccccc1` [Example 24, 4-Hydroxymethyl-N-((R)-1-phenylethyl)-2-oxyfurazan-3-carboxamide], for which the IC50 was 2 µM.
With `NS(=O)(=O)c1ccc(CCNC(=O)c2c(CO)no[n+]2[O-])cc1` [Example 26, 4-Hydroxymethyl-N-[2-(4-sulphamoylphenyl)-ethyl]-2-oxyfurazan-3-carboxamid], the IC50 is 11 µM.
The same measure, in the same setting: the figure for `NC(=O)c1c(CO)no[n+]1[O-]` [Compound 3 I, 4-Hydroxymethyl-2-oxyfurazan-3-carboxamide] is 12 µM.
Still for that read-out and setting: the figure for `C[C@H](NC(=O)c1c(CO)no[n+]1[O-])c1ccccc1` [Example 23, 4-Hydroxymethyl-N-((S)-1-phenylethyl)-2-oxyfurazan-3-carboxamide] is 15 µM; for `CCOC(=O)[N-]c1cn(N2CCOCC2)n[o+]1` [Molsidomine, molsidomine, reference compound] it is 300 µM.
Still for that read-out and setting: the figure for `O=C(NCc1cccnc1)c1c(CO)no[n+]1[O-]` [Example 8, 4-Hydroxymethyl-N-(3-pyridylmethyl)-2-oxyfurazan-3-carboxamide hydrochloride] is 8 µM; for `CC(C)NC(=O)c1c(CO)no[n+]1[O-]` [Compound 1 I, 4-Hydroxymethyl-N-isopropyl-2-oxyfurazan-3-carboxamide] it is 8 µM.
`COCCNC(=O)c1c(CO)no[n+]1[O-]` [Example 18, 4-Hydroxymethyl-N-(2-methoxyethyl)-2-oxyfurazan-3-carboxamide]: the IC50 is 8 µM.
The same measure, in the same setting: the same measure for `CNC(=O)c1c(CO)no[n+]1[O-]` [Example 4 I, 4-Hydroxymethyl-N-methyl-2-oxyfurazan-3-carboxamide]: 7.3 µM.
